Laboratory results taken from patent US20140094387A1, “SUV39H2 AS A TARGET GENE FOR CANCER THERAPY AND DIAGNOSIS” (ONCOTHERAPY SCIENCE, INC., priority 2011, published 2014).

System: SUV39H2
Test: Quantitative real-time PCR of SUV39H2 expression after siRNA transfection
Format: cell-based, human
Details: A549 and SW780 cells; siRNA 100 nM; normalized by GAPDH, relative to siEGFP (siEGFP=1); vs control siRNAs siEGFP and siNC

## siSUV39H2#1: siRNA duplex targeting human SUV39H2; target 5' CUUUGGUUGUUCAUGCACA 3' (SEQ ID NO: 19); sense SEQ ID NO: 15, antisense SEQ ID NO: 16 (sense CUUUGGUUGUUCAUGCACATT; antisense UGUGCAUGAACAACCAAAGTT; chemistry not given here)
  SUV39H2 mRNA expression level: suppression of endogenous SUV39H2 expression

## siSUV39H2#2: siRNA duplex targeting human SUV39H2; target 5' CUGGAAUCAGCUUAGUCAA 3' (SEQ ID NO: 20); sense SEQ ID NO: 17, antisense SEQ ID NO: 18 (sense CUGGAAUCAGCUUAGUCAATT; antisense UUGACUAAGCUGAUUCCAGTT; chemistry not given here)
  SUV39H2 mRNA expression level: suppression of endogenous SUV39H2 expression
